Source: ChEMBL document CHEMBL4627372, “Spiroseoflosterol, a Rearranged Ergostane-Steroid from the Fruiting Bodies of Butyriboletus roseoflavus” (J Nat Prod, 2020)
pIC50: −log10 of the molar value. Calls of active or inactive are those of the source. The rule behind the calls is not given here.

How the values were obtained:
[1] = Selectivity ratio of IC50 for human LO2 cells to IC50 for human Huh7S1 cells; assay type: toxicity; conditions: LO2 cells versus Huh7S1 cells, read-out: Ratio IC50
[2] = tested on: L02; assay: Cytotoxicity against human LO2 cells after 48 hrs by MTT assay; assay type: cell-based; conditions: L02, 48 h
[3] = Cytotoxicity against human Huh7S1 cells after 48 hrs by MTT assay; assay type: functional, cell-based
[4] = Selectivity ratio of IC50 for human LO2 cells to IC50 for human HepG2 cells; assay type: toxicity; conditions: LO2 cells versus HepG2 cells, read-out: Ratio IC50
[5] = tested on: HepG2; assay: Cytotoxicity against human HepG2 cells after 48 hrs by MTT assay; assay type: functional, cell-based; conditions: HepG2, 48 h
[6] = tested on: HepG2; assay: Cytotoxicity against human HepG2 cells at 10 uM after 48 hrs by MTT assay; assay type: functional, cell-based

For CC(C)[C@@H](C)/C=C/[C@@H](C)[C@H]1CC[C@H]2C(=O)[C@@]3(CC[C@]12C)[C@@H](O)C[C@H]1C[C@@H](O)CC[C@@]13C, the selectivity ratio [1] was 3.7, the pIC50 [2] was 4.64 and the pIC50 [3] was 5.21. It also gave a selectivity ratio [4] of 2.5 and a pIC50 [5] of 5.04.
In the case of CC(C)[C@@H](C)/C=C/[C@@H](C)[C@H]1CCC2=C3C=C[C@H]4C[C@@H](O)CC[C@]4(C)[C@H]3CC[C@@]21C, the Activity [6] was “inactive”.
CNC(=O)c1cc(Oc2ccc(NC(=O)Nc3ccc(Cl)c(C(F)(F)F)c3)cc2)ccn1 [SORAFENIB] showed a pIC50 [2] of 5.04, a selectivity ratio [4] of 1.6 and a pIC50 [5] of 5.26.
